These are literature values, as cited in US20240342237A1, “COMPOSITION AND METHODS OF TREATMENT USING TRANSDERMAL SUPPLEMENTATION” (Xygenyx Inc., priority 2023, published 2024).

Data set [1] has as its system skin. Conditions: as penetration enhancer.
Data set [2] has as its system wide dynamic range neurons in the ventroposterolateral nucleus of the thalamus. Conditions: in vivo.
Data set [3] relates to skin. The settings on record: topical application, concentrations 0.5-5%.
In data set [4] the test system is skin. The settings on record: topical formulations, within four weeks of treatment.
For data set [5] the following is noted: compared to α-tocopherol = 1.0.
For data set [6] the following is noted: dietary intake in equal portions.
The conditions of data set [7]: in vivo.

Square brackets hold non-standard residues; d marks the D form. Peptide text beside a SMILES is read from it. Cit = NC(=O)NCCC[C@H](N)C(=O)O Bounds are passed on as bounds.

As for `CC(C)[C@@H]1CC[C@@H](C)C[C@H]1O` [Menthol], the “factor of increase of transdermal drug uptake” value with skin [1] was no less than 10.
With `CCCCCc1cc(O)c2c(c1)OC(C)(C)C1CCC(C)=CC21` (stereo not shown) [THC, Δ-9-tetrahydrocannabinol], the “power in mediating pain relative to morphine” value in data set [2] is listed as “ten times more powerful than morphine”.
As to `C=CCCCCCCCCC(=O)N[C@@H](Cc1ccccc1)C(=O)O` [UP, Undecylenoyl phenylalanine], in the data set with skin [3], the “time to skin lightening effects” value is on record as no less than 7 days.
For the compound `CC12CCC(CC1)C(C)(C)O2` [eucalyptol, 1,8-epoxy-p-menthane], the “factor of increase of transdermal drug uptake” value in the data set on skin [1] is “more than 10”.
Take `CC[C@H](C)[C@H](NC(=O)[C@H](CC(=O)O)NC(=O)[C@@H](N)CCCCN)C(=O)N[C@@H](CCCNC(N)=O)C(N)=O` [tripeptide-10 citrulline, Tripeptide-10 citrulline] (H-KDI[Cit]-NH2): the improvement of suppleness in the data set on skin [4] was no more than 54%.
`Cc1c(C)c2c(c(C)c1O)CC[C@@](C)(CCC[C@H](C)CCC[C@H](C)CCCC(C)C)O2` [α-tocopherol]: the “reduction of risk of coronary disease” value (dietary supplementation, doses up to 400 IU/day) is listed as “up to 34%”. Besides, for the setting “dietary supplementation, doses up to 400 IU/day, controlled trials”, the “reduction of risk of developing neurodegenerative diseases such as Alzheimer's Syndrome or dementia” value was no more than 24%. Moreover, the “reduction in the development of age-related cataracts” value (in combination with 10-20 mg β-carotene and 400-500 mg vitamin C, doses around 400-500 IU) is 23%.
Take `Cc1cc(O)c(C)c2c1O[C@](C)(CCC[C@H](C)CCC[C@H](C)CCCC(C)C)CC2` [β-tocopherol]: the relative biological activity in data set [5] was 0.5.
With `Cc1c(O)cc2c(c1C)O[C@](C)(CCC[C@H](C)CCC[C@H](C)CCCC(C)C)CC2` [γ-tocopherol], the “concentration in vivo relative to α-tocopherol” value in data set [6] is reported as “roughly 10%”. Further, the relative biological activity in data set [5] is recorded as 0.1.
On to `Cc1cc(O)cc2c1O[C@](C)(CCC[C@H](C)CCC[C@H](C)CCCC(C)C)CC2` [δ-tocopherol], for which, in data set [5], the relative biological activity is reported as 0.03.
For the compound “HGH: hormone comprising a peptide chain that is synthesized in the pituitary gland”, the biological half-life in data set [7] is listed as 10-20 minutes.
